Tested on: clinically stable subjects with schizophrenia
Test: Clinical Study A (Phase 2a, placebo-controlled): MATRICS Consensus Cognitive Battery (MCCB)
Assay type: in vivo, human
Source text: A Phase 2a proof-of-concept (POC) study in clinically stable subjects with schizophrenia who were clinically stable and received stable doses of atypical antipsychotic therapy. The study was a Phase 2, multi-center, randomized, double-blind, placebo-controlled, parallel group study designed to evaluate the safety and efficacy of doses of (4s)-4-(5-phenyl-1,3,4-thiadiazol-2-yloxy)-1-azatricyclo[3.3.1.1^3,7]decane (Compound A) in clinically stable male and female subjects (ages 20 to 55, inclusive) with a Diagnostic and Statistical Manual of Mental Disorders Fourth Edition, Text Revision (DSM-IV-TR) diagnosis of schizophrenia. Psychiatric diagnoses were confirmed using the Mini-International Neuropsychiatric Interview (MINI) version 6.0.0. The criteria for clinical stability was determined by a combination of retrospective data (over the 4 months prior to the start of Screening, which will be supported by clinical records, patient, identified responsible contact person, and physician interviews), and prospective data assessed during the Prospective Stabilization Period of 28 to 42 days duration.
The study was a Phase 2, multi-center, randomized, double-blind, placebo-controlled, parallel group study designed to evaluate the safety and efficacy of doses of (4s)-4-(5-phenyl-1,3,4-thiadiazol-2-yloxy)-1-azatrieyclo[3.3.1.1^3,7]decane, which is also recognized as Compound A, in treating cognitive deficits in subjects with schizophrenia who were clinically stable and receiving one or two atypical antipsychotic medications. Study drug was administered orally.
The study consisted of a screening period of at least 28 and up to 42 days, a 84-day outpatient treatment period, a 14-day post-treatment period, and a post-treatment follow-up period. The screening period consisted of three visits: Screening Visit 1, Screening Visit 2, and Day −1. Upon completion of Day −1 procedures, eligible subjects were randomized through an Interactive Voice Response/Interactive Web-Based (IVR/IWB) system. Subjects were randomized in an equal ratio to one of three treatment groups (placebo, 10 mg Compound A, or 25 mg Compound A).
Subjects were randomized in a 1:1:1 ratio with placebo, 10 mg QD Compound A, of 25 mg Compound A. Each subject was instructed to take study drug once-daily in the morning for 12 weeks. Each daily dose was preferably taken with food. The subject and investigator were blinded to the treatment assignment throughout the study. The treatment assignments for the study subjects are shown below in Table 1.
The primary endpoint was the MCCB composite score, and the primary endpoint analysis was the change on the MCCB composite score from baseline to endpoint versus placebo. Other secondary measures included the MCCB domains, the NSA-16, the CANTAB cognition battery (measured at different time points from the MCCB), and the UPSA-2. The Positive and Negative Syndrome Scale (PANSS) was included to document stability in schizophrenia symptomatology.
The MCCB was developed by a consortium of academic, industry, the Food and Drug Administration (FDA) and National Institute of Mental Health ([…]) members called Measurement and Treatment Research to Improve Cognition in Schizophrenia (MATRICS). The battery was established in a multiple phase process that involved experts identifying cognitive tests in the literature that had shown deficits in schizophrenia, use of factor analysis to identify key domains of cognitive deficits in schizophrenia, and then empirically identifying the best tests for each domain based on reliability, validity and feasibility for use in clinical trials. The FDA has endorsed the MCCB as an appropriate outcome measure for Phase 3 CDS trials. […]

[1] = 25 mg QD, Change to Week 2, ITT
[2] = 25 mg QD, Change to Week 6, ITT
[3] = 25 mg QD, Change to Week 12, ITT

## c1ccc(-c2nnc(O[C@@H]3C4CC5C[C@H]3C[N@](C5)C4)s2)cc1 [Compound A, (4s)-4-(5-phenyl-1,3,4-thiadiazol-2-yloxy)-1-azatricyclo[3.3.1.1^3,7]decane]
[1]
  MCCB Reasoning and Problem Solving: LS Mean (SE) of Change from Baseline: 1.95 (0.92) T-score
  MCCB Reasoning and Problem Solving: Observed Mean (SD) of change from baseline: 2.00 (6.25) T-score
[2]
  MCCB Attention/Vigilance: Difference from Placebo LS Mean (SE) of Difference: 1.71 (1.41) T-score
  MCCB Attention/Vigilance: LS Mean (SE) of Change from Baseline: 0.91 (1.06) T-score
  MCCB Attention/Vigilance: Observed Mean (SD) of change from baseline: 1.09 (9.04) T-score
  MCCB Reasoning and Problem Solving: Difference from Placebo LS Mean (SE) of Difference: 2.22 (1.08) T-score
  MCCB Reasoning and Problem Solving: LS Mean (SE) of Change from Baseline: 2.18 (0.81) T-score
  MCCB Reasoning and Problem Solving: Observed Mean (SD) of change from baseline: 2.11 (7.06) T-score
  MCCB Social Cognition: Difference from Placebo LS Mean (SE) of Difference: −1.21 (1.40) T-score
  MCCB Social Cognition: LS Mean (SE) of Change from Baseline: 0.30 (1.05) T-score
  MCCB Social Cognition: Observed Mean (SD) of change from baseline: 0.06 (8.00) T-score
  MCCB Speed of Processing: Difference from Placebo LS Mean (SE) of Difference: 1.84 (1.08) T-score
  MCCB Speed of Processing: LS Mean (SE) of Change from Baseline: 2.24 (0.80) T-score
  MCCB Speed of Processing: Observed Mean (SD) of change from baseline: 2.56 (5.36) T-score
  MCCB Verbal Learning: Difference from Placebo LS Mean (SE) of Difference: 0.49 (1.18) T-score
  MCCB Verbal Learning: LS Mean (SE) of Change from Baseline: 0.56 (0.88) T-score
  MCCB Verbal Learning: Observed Mean (SD) of change from baseline: 0.41 (9.24) T-score
  MCCB Visual Learning: Difference from Placebo LS Mean (SE) of Difference: −1.00 (1.65) T-score
  MCCB Visual Learning: LS Mean (SE) of Change from Baseline: −1.15 (1.22) T-score
  MCCB Visual Learning: Observed Mean (SD) of change from baseline: −1.06 (9.04) T-score
  MCCB Working Memory: Difference from Placebo LS Mean (SE) of Difference: 2.39 (1.08) T-score
  MCCB Working Memory: LS Mean (SE) of Change from Baseline: 1.88 (0.81) T-score
  MCCB Working Memory: Observed Mean (SD) of change from baseline: 1.69 (7.43) T-score
[3]
  MCCB Attention/Vigilance: Difference from Placebo LS Mean (SE) of Difference: 2.85 (1.57) T-score
  MCCB Attention/Vigilance: LS Mean (SE) of Change from Baseline: 0.86 (1.16) T-score
  MCCB Attention/Vigilance: Observed Mean (SD) of change from baseline: 0.88 (9.09) T-score
  MCCB Social Cognition: Difference from Placebo LS Mean (SE) of Difference: −0.40 (1.61) T-score
  MCCB Social Cognition: LS Mean (SE) of Change from Baseline: 0.19 (1.19) T-score
  MCCB Social Cognition: Observed Mean (SD) of change from baseline: −0.14 (10.81) T-score
  MCCB Speed of Processing: Difference from Placebo LS Mean (SE) of Difference: 0.37 (1.26) T-score
  MCCB Speed of Processing: LS Mean (SE) of Change from Baseline: 1.66 (0.93) T-score
  MCCB Speed of Processing: Observed Mean (SD) of change from baseline: 1.73 (7.28) T-score
  MCCB Verbal Learning: Difference from Placebo LS Mean (SE) of Difference: 1.80 (1.17) T-score
  MCCB Verbal Learning: LS Mean (SE) of Change from Baseline: 2.27 (0.87) T-score
  MCCB Verbal Learning: Observed Mean (SD) of change from baseline: 2.24 (8.03) T-score
  MCCB Visual Learning: Difference from Placebo LS Mean (SE) of Difference: 1.27 (1.68) T-score
  MCCB Visual Learning: LS Mean (SE) of Change from Baseline: 0.83 (1.23) T-score
  MCCB Visual Learning: Observed Mean (SD) of change from baseline: 1.24 (8.49) T-score
  MCCB Working Memory: Difference from Placebo LS Mean (SE) of Difference: 2.03 (1.25) T-score
  MCCB Working Memory: LS Mean (SE) of Change from Baseline: 2.14 (0.93) T-score
  MCCB Working Memory: Observed Mean (SD) of change from baseline: 1.98 (6.84) T-score
25 mg, baseline to Week 6, MNIRIVI analysis, placebo LS mean +0.49
  MCCB composite score: LS mean change from baseline: +1.27
Week 6, 10 mg and 25 mg
  MCCB domains with LS mean difference versus placebo greater in both dose groups: 5 of the 7 MCCB domains
Each dose group (10 mg, 25 mg), Week 6
  MCCB composite score: statistical significance of difference from placebo: did not reach the level of statistical significance
Patients with schizophrenia, summary statement
  Effect on cognition: precognitive effects
